Data on one compound can be found in article PMC9446078 (Frontiers in Endocrinology, 2022).

A short description of this data set: Toxicokinetics in miniature swine. Type of data set: in vivo, Hanford miniature swine. The method, then: A total of 40 Hanford miniature swine (20 male and 20 female) divided into four treatment groups were used for this study. A 12-week topical application of Galnobax 20% was carried out in the miniature swine wound healing model with twice-daily dosing. Six wounds (10 cm^2 each) of partial thickness were created on the dorsal region of all animals. Four wounds of each animal received twice-daily topical doses of either the vehicle or Galnobax gel, and the remaining two sites served as untreated comparative control wounds. Each group has four male and female miniature swine for the assessments and one each for the recovery period as given in Table 1 . Safety parameters in terms of ECG, clinical pathology, wound site evaluation, and toxicokinetics were performed during the study.

[1] abbreviates: Day 1, Group 2 swine, topical 400 mg Galnobax Gel, mean.
[2] abbreviates: Week 6, Group 2 swine, topical 400 mg Galnobax Gel BID, mean.
Where [3] appears, read: Week 12, Group 2 swine, topical 400 mg Galnobax Gel BID, mean.

What is called Cmax is the peak of the concentration-time curve. As usually defined, the Tmax is the time at which the peak concentration occurs.

With `CC(C)NCC(O)COc1ccc(CCC(=O)O)cc1` (centres unmarked) [Esmolol Acid, Esmolol acid], under setting [1], the AUClast was 3780 ng·h/mL, the Cmax came out at 683 ng/mL, the Tmax stood at 2.60 h and the t1/2 was determined as 4.18 h. For the same compound, the t1/2 entry (Day 1, Group 2 swine, topical 400 mg Galnobax Gel, mean, listed as Esmolol acid) is “approximately 4 hr”. In addition, under setting [2], the AUClast came to 308 ng·h/mL, the Cmax is listed as 52.5 ng/mL and the Tmax stood at 5.33 h. Under setting [3], the AUC0-8 worked out at 269 ng·h/mL, the AUClast came to 291 ng·h/mL, the Cmax was 59.7 ng/mL and the Tmax stood at 2.09 h. This compound also registered a t1/2 under setting [3] of 15.90 h. Also, the “accumulation after 12 weeks of twice-daily topical application” value (miniature swine, topical Galnobax) was “no apparent accumulation”.
